Laboratory results reported in ChEMBL document CHEMBL3826966, “A chromatography-free isolation of rohitukine from leaves of Dysoxylum binectariferum: Evaluation for in vitro cytotoxicity, Cdk inhibition and physicochemical properties” (Bioorg Med Chem Lett, 2016).

Columns and labels:
[1] = target: Ephrin type-A receptor 4 (Homo sapiens) (UniProt P54764); assay: Inhibition of human EPHA4 (580 to 986 residues) assessed as remaining enzyme activity at 50 uM after 30 mins by 33P-ATP filter-binding assay
[2] = Partition coefficient, logP of the compound in water/PBS buffer at pH 7.4 at 25 degC after 20 mins by shake flask method; type: physicochemical
[3] = target: Protein kinase C gamma type (Homo sapiens) (UniProt P05129); assay: Inhibition of human PKCgamma (1 to 697 residues) assessed as remaining enzyme activity at 50 uM after 30 mins by 33P-ATP filter-binding assay
[4] = target: Ephrin type-B receptor 2 (Homo sapiens) (UniProt P29323); assay: Inhibition of human EPHB2 (560 to 987 residues) assessed as remaining enzyme activity at 50 uM after 30 mins by 33P-ATP filter-binding assay
[5] = target: Serine/threonine-protein kinase PAK 6 (Homo sapiens) (UniProt Q9NQU5); assay: Inhibition of human PAK6 (2 to 681 residues) assessed as remaining enzyme activity at 50 uM after 30 mins by 33P-ATP filter-binding assay
[6] = target: Ephrin type-B receptor 3 (Homo sapiens) (UniProt P54753); assay: Inhibition of human EPHB3 (561 to 998 residues) assessed as remaining enzyme activity at 50 uM after 30 mins by 33P-ATP filter-binding assay
Chain of Ephrin type-B receptor 3 (Homo sapiens) (P54753 whole entry, the tested form may be a part): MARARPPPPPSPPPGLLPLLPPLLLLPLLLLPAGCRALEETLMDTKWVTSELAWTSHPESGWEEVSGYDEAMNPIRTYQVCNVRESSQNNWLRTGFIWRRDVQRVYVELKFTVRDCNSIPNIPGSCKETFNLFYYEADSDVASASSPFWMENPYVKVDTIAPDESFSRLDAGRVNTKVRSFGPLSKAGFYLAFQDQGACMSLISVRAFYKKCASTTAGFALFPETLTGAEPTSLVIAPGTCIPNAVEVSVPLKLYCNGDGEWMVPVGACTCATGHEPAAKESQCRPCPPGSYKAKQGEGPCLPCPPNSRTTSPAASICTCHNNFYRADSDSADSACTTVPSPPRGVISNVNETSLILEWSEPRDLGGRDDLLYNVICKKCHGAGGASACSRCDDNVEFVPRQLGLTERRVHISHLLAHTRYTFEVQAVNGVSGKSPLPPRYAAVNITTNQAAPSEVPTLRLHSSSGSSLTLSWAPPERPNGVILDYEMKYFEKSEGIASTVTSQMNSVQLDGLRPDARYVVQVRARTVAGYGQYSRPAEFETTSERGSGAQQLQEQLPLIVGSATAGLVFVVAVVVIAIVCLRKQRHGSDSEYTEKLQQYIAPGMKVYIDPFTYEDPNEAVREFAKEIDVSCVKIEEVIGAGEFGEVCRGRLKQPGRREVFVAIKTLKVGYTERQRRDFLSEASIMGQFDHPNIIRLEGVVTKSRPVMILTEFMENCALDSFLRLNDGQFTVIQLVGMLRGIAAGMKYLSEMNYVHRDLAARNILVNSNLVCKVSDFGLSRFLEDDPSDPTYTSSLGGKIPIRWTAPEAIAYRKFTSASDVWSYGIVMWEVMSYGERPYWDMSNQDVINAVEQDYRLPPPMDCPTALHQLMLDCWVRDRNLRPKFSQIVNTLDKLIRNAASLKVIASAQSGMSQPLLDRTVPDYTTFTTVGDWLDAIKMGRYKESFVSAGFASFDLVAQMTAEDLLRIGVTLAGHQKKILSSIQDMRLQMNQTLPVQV

[7] = Distribution coefficient, logD of the compound in water/PBS buffer at pH 7.4 at 25 degC after 20 mins by shake flask method; type: physicochemical
[8] = target: Serine/threonine-protein kinase pim-2 (Homo sapiens) (UniProt Q9P1W9); assay: Inhibition of human PIM2 (2 to 334 residues) assessed as remaining enzyme activity at 50 uM after 30 mins by 33P-ATP filter-binding assay
[9] = target: Dual specificity testis-specific protein kinase 1 (Homo sapiens) (UniProt Q15569); assay: Inhibition of human TESK1 (1 to 345 residues) assessed as remaining enzyme activity at 50 uM after 30 mins by 33P-ATP filter-binding assay
[10] = target: Serine/threonine-protein kinase BRSK1 (Homo sapiens) (UniProt Q8TDC3); assay: Inhibition of human BRSK1 (2 to 778 residues) assessed as remaining enzyme activity at 50 uM after 30 mins by 33P-ATP filter-binding assay
[11] = target: Casein kinase I isoform gamma-2 (Homo sapiens) (UniProt P78368); assay: Inhibition of human CK1gamma2 (1 to 415 residues) assessed as remaining enzyme activity at 50 uM after 30 mins by 33P-ATP filter-binding assay
MDA-MB-231 = assay: Cytotoxicity against human MDA-MB-231 cells assessed as cell growth inhibition after 48 hrs by MTT assay; type: functional; conditions: MDA-MB-231, 48 h
[12] = target: Ribosomal protein S6 kinase beta-1 (Homo sapiens) (UniProt P23443); assay: Inhibition of human S6K1 assessed as remaining enzyme activity at 50 uM after 30 mins by 33P-ATP filter-binding assay
[13] = target: Serine/threonine-protein kinase BRSK2 (Homo sapiens) (UniProt Q8IWQ3); assay: Inhibition of human BRSK2 (2 to 674residues) assessed as remaining enzyme activity at 50 uM after 30 mins by 33P-ATP filter-binding assay
[14] = target: Mitogen-activated protein kinase kinase kinase 1 (Homo sapiens) (UniProt Q13233); assay: Inhibition of human MEKK1 (877 to1563 residues) assessed as remaining enzyme activity at 50 uM after 30 mins by 33P-ATP filter-binding assay
Chain of Mitogen-activated protein kinase kinase kinase 1 (Homo sapiens) (Q13233 whole entry, the tested form may be a part): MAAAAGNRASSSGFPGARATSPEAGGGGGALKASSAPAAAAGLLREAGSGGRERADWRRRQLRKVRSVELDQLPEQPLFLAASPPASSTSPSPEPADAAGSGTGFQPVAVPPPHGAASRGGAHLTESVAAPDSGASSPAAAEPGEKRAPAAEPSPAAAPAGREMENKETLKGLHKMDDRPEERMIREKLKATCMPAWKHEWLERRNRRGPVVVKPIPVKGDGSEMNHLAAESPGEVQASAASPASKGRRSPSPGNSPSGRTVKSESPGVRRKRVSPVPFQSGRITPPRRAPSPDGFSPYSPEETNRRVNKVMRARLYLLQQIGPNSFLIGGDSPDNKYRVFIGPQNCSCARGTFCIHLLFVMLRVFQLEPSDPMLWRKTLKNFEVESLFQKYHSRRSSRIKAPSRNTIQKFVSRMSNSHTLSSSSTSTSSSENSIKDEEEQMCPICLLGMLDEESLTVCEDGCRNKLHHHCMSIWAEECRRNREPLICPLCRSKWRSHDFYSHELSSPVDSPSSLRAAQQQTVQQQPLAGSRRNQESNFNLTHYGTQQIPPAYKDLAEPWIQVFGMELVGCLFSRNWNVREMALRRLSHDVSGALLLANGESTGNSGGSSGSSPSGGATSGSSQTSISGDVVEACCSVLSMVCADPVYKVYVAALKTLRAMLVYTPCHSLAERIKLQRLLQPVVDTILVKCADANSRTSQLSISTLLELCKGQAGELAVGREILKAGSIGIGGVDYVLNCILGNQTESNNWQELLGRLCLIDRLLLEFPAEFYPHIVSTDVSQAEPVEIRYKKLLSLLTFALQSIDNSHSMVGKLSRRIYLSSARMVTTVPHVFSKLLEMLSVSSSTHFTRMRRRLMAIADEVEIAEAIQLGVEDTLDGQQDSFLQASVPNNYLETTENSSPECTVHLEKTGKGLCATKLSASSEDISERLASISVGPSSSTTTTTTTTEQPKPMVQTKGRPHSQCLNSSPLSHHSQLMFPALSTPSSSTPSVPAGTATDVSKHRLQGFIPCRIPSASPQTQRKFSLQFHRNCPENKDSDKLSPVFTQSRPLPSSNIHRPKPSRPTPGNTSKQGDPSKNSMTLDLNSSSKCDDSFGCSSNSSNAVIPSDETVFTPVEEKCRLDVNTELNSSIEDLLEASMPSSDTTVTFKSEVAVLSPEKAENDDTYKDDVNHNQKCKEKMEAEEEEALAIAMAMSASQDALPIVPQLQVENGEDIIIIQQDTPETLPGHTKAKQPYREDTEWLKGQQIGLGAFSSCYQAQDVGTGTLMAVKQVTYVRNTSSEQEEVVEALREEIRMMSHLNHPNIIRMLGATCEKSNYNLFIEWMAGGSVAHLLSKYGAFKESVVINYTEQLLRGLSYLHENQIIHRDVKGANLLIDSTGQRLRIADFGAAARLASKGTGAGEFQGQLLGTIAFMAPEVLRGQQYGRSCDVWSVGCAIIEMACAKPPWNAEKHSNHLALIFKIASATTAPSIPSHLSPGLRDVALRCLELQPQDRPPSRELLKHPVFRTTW

[15] = target: MAP kinase-interacting serine/threonine-protein kinase 2 (Homo sapiens) (UniProt Q9HBH9); assay: Inhibition of human MNK2 assessed as remaining enzyme activity at 50 uM after 30 mins by 33P-ATP filter-binding assay
[16] = target: Serine/threonine-protein kinase PAK 5 (Homo sapiens) (UniProt Q9P286); assay: Inhibition of human PAK5 (2 to 719 residues) assessed as remaining enzyme activity at 50 uM after 30 mins by 33P-ATP filter-binding assay
Chain of Serine/threonine-protein kinase PAK 5 (Homo sapiens) (Q9P286 whole entry, looked up, the tested form may be a part): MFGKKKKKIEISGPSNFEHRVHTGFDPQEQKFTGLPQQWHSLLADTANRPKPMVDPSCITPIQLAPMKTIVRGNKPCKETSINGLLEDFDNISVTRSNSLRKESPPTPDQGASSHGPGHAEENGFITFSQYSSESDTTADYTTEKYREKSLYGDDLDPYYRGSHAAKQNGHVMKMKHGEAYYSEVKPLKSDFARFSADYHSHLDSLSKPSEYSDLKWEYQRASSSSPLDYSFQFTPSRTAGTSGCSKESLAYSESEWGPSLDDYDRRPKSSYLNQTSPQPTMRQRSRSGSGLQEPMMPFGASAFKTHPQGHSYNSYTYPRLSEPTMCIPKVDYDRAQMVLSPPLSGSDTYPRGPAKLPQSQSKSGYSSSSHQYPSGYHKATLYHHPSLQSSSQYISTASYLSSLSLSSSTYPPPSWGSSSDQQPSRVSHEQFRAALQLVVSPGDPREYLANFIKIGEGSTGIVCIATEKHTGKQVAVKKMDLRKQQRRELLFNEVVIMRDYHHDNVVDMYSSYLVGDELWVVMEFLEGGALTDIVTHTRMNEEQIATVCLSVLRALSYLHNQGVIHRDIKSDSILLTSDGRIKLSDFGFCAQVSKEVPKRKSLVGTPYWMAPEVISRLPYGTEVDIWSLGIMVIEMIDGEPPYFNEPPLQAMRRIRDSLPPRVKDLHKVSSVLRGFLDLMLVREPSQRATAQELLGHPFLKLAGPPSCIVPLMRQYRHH

[17] = target: Dual specificity mitogen-activated protein kinase kinase 6 (Homo sapiens) (UniProt P52564); assay: Inhibition of human MKK6 (2 to 334 residues) assessed as remaining enzyme activity at 50 uM after 30 mins by 33P-ATP filter-binding assay
Chain of Dual specificity mitogen-activated protein kinase kinase 6 (Homo sapiens) (P52564 whole entry, the tested form may be a part): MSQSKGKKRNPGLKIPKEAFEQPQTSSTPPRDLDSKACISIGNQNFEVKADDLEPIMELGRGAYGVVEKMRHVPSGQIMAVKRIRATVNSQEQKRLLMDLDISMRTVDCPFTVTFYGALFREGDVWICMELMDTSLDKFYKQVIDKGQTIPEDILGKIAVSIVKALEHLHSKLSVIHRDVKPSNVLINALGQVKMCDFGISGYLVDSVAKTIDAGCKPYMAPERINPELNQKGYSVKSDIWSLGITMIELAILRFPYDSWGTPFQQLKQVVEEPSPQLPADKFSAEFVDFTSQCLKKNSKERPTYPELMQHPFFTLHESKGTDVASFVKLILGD

[18] = Cytotoxicity against human SF295 cells assessed as cell growth inhibition after 48 hrs by MTT assay; type: functional; conditions: SF-295, 48 h
[19] = target: Tyrosine-protein kinase BTK (Homo sapiens) (UniProt Q06187); assay: Inhibition of human BTK (2 to 659 residues) assessed as remaining enzyme activity at 50 uM after 30 mins by 33P-ATP filter-binding assay
[20] = target: Death-associated protein kinase 1 (Homo sapiens) (UniProt P53355); assay: Inhibition of human DAPK1 (1 to 363) assessed as remaining enzyme activity at 50 uM after 30 mins by 33P-ATP filter-binding assay
[21] = target: Inhibitor of nuclear factor kappa-B kinase subunit epsilon (Homo sapiens) (UniProt Q14164); assay: Inhibition of human IKKe (1 to 716 residues) assessed as remaining enzyme activity at 50 uM after 30 mins by 33P-ATP filter-binding assay
[22] = target: Dual specificity protein kinase TTK (Homo sapiens) (UniProt P33981); assay: Inhibition of human TTK (1 to 857 residues) assessed as remaining enzyme activity at 50 uM after 30 mins by 33P-ATP filter-binding assay
Chain of Dual specificity protein kinase TTK (Homo sapiens) (P33981 whole entry, the tested form may be a part): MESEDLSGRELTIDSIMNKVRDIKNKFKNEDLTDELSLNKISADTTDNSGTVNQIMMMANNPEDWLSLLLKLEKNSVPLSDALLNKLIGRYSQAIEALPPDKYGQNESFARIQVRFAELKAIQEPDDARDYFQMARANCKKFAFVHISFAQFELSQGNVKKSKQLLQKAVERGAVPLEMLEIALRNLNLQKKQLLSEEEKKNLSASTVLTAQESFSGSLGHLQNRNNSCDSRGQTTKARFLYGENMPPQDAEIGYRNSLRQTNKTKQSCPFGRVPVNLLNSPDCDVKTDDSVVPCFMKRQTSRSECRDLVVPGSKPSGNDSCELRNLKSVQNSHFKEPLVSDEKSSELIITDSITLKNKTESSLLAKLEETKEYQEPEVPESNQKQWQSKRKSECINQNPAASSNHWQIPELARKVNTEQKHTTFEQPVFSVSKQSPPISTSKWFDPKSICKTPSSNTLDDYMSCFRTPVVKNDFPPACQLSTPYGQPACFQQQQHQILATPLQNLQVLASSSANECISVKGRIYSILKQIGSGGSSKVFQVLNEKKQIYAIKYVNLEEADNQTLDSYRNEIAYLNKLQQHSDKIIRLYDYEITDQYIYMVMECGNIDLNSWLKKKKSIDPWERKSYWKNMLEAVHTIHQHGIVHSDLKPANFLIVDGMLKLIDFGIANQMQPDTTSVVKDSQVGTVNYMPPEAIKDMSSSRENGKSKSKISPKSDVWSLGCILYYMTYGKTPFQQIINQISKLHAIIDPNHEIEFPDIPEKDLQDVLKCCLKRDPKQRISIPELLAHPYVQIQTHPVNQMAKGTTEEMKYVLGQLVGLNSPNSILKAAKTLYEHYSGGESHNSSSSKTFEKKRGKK

[23] = target: Mitogen-activated protein kinase 11 (Homo sapiens) (UniProt Q15759); assay: Inhibition of human p38beta MAPK (1 to 364 residues) assessed as remaining enzyme activity at 50 uM after 30 mins by 33P-ATP filter-binding assay
Chain of Mitogen-activated protein kinase 11 (Homo sapiens) (Q15759 whole entry, the tested form may be a part): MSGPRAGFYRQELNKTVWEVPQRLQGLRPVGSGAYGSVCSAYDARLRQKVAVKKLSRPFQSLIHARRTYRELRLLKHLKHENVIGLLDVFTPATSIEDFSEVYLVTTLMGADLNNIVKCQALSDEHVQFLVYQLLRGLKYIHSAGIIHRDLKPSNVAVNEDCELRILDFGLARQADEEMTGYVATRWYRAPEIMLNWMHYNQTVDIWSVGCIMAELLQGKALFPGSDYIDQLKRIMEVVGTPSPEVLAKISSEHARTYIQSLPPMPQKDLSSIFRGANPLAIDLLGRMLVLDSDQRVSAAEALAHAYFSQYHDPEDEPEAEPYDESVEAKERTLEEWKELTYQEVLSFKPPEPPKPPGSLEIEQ

[24] = target: Proto-oncogene tyrosine-protein kinase Src (Homo sapiens) (UniProt P12931); assay: Inhibition of human Src (1 to 536 residues) assessed as remaining enzyme activity at 50 uM after 30 mins by 33P-ATP filter-binding assay
[25] = target: Discoidin domain-containing receptor 2 (Homo sapiens) (UniProt Q16832); assay: Inhibition of human DDR2 (467 to 854 residues) assessed as remaining enzyme activity at 50 uM after 30 mins by 33P-ATP filter-binding assay
[26] = Cell cycle arrest in human HL60 cells assessed as accumulation at G1 phase at 5 uM (reference value: 59 %); type: functional, cell-based; conditions: HL-60
[27] = Stability in pH 6.8 buffer at 120 ug/ml after 8 hrs by RP-HPLC analysis; type: physicochemical; conditions: pH 6.8, 8 h
[28] = target: Serine/threonine-protein kinase Nek6 (Homo sapiens) (UniProt Q9HC98); assay: Inhibition of human NEK6 (8 to 313 residues) assessed as remaining enzyme activity at 50 uM after 30 mins by 33P-ATP filter-binding assay
[29] = target: Calcium/calmodulin-dependent protein kinase type 1 (Homo sapiens) (UniProt Q14012); assay: Inhibition of human CAMK1 (1 to 541 residues) assessed as remaining enzyme activity at 50 uM after 30 mins by 33P-ATP filter-binding assay

Activity [1]: 53%
logD at 20 min [2]: -0.55
Activity [3]: 89%
Activity [4]: 81%
Activity [5]: 79%
Activity [6]: 82%
logD at 20 min [7]: -0.55
Activity [8]: 67%
Activity [9]: 88%
Activity [10]: 36%
Activity [11]: 92%
Activity [12]: 79%
Activity [13]: 65%
Activity [14]: 83%
Activity [15]: 49%
Activity [16]: 87%
Activity [17]: 89%
Activity [19]: 58%
Activity [21]: 69%
Activity [22]: 56%
Activity [23]: 76%
Activity [24]: 61%
Activity [25]: 79%
Stability [27]: Stable
Activity [28]: 84%
Activity [29]: 76%
Compound: Cc1cc(=O)c2c(O)cc(O)c([C@H]3CCN(C)C[C@H]3O)c2o1 [ROHITUKINE]
GI50 (MDA-MB-231): 13 µM
GI50 [18]: 27 µM
Activity [20]: 96%
Activity [26]: 56%
